# Source: PubChem BioAssay AID1259411 (Chemical Carcinogenesis Research Information System (CCRIS), 2018)
# The source made the active and inactive calls. How the calls were made is not given here.
# Test system: rodent carcinogenicity bioassays, tumor incidence
# Test: CCRIS carcinogenicity studies
# Procedure, shortened: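 Archive of carcinogenicity, mutagenicity, tumor promotion and tumor inhibition results drawn from journals, NCI reports and other sources, expert-reviewed; covers 1985-2011 and is no longer updated.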
compound,measurement,setting,value
CCCCOC(=O)c1ccccc1C(=O)OCc1ccccc1,carcinogen call,"Species: MOUSE, Strain/Sex: B6C3F1/FEMALE, Route: ORAL, Dose: 0, 6000, 12000 PPM IN DIET FOR 103 WK (STUDY DURATION: 105-106 WK), Dose: 0, 6000, 12000 PPM IN DIET FOR 103 WK (STUDY DURATION: 105-106 WK)",inactive; negative
same,carcinogen call,"Species: MOUSE, Strain/Sex: B6C3F1/MALE, Route: ORAL, Dose: 0, 6000, 12000 PPM IN DIET FOR 103 WK (STUDY DURATION: 104-106 WK), Dose: 0, 6000, 12000 PPM IN DIET FOR 103 WK (STUDY DURATION: 104-106 WK)",inactive; negative
same,carcinogen call,"Species: RAT, Strain/Sex: F344/FEMALE, Route: ORAL, Dose: 0, 6000, 12000, 24000 PPM IN DIET FOR DURATION OF STUDY (STUDY DURATION: 104 WK), Dose: 0, 6000, 12000, 24000 PPM IN DIET FOR DURATION OF STUDY (STUDY DURATION: 104 WK), Tumor Site: Type of Lesion: PANCREAS: ACINAR CELL ADENOMA, URINARY BLADDER: TRANSITIONAL EPITHELIAL PAPILLOMA",equivocal
same,carcinogen call,"Species: RAT, Strain/Sex: F344/FEMALE, Route: ORAL, Dose: 0, 24000 PPM IN DIET FOR 105 WK, CONTROL GROUP DIET RESTRICTED TO LIMIT WEIGHTS TO 85% OF AD LIBITUM-FED GROUP (STUDY DU",inactive; negative
same,carcinogen call,"Species: RAT, Strain/Sex: F344/FEMALE, Route: ORAL, Dose: 0, 24000 PPM IN DIET FOR 106 WK, CONTROL AND DOSED GROUP FED AD LIBITUM (STUDY DURATION: 2 YR)",inactive; negative
same,carcinogen call,"Species: RAT, Strain/Sex: F344/FEMALE, Route: ORAL, Dose: 0, 24000 PPM IN DIET FOR 106 WK, CONTROL GROUP WAS WEIGHT-MATCHED TO DOSED GROUP (STUDY DURATION: 2 YR)",inactive; negative
same,carcinogen call,"Species: RAT, Strain/Sex: F344/MALE, Route: ORAL, Dose: 0, 3000, 6000, 12000 PPM IN DIET FOR DURATION OF STUDY (STUDY DURATION: 104 WK), Dose: 0, 3000, 6000, 12000 PPM IN DIET FOR DURATION OF STUDY (STUDY DURATION: 104 WK), Tumor Site: Type of Lesion: PANCREAS: ACINAR CELL ADENOMA, ACINAR CELL ADENOMA OR CARCINOMA",active; positive
same,carcinogen call,"Species: RAT, Strain/Sex: F344/MALE, Route: ORAL, Dose: 0, 12000 PPM IN DIET FOR 105 WK, CONTROL AND DOSED GROUPS FED AD LIBITUM (STUDY DURATION 2 YR), Tumor Site: Type of Lesion: PANCREAS(ACINUS): ADENOMA",active; positive
same,carcinogen call,"Species: RAT, Strain/Sex: F344/MALE, Route: ORAL, Dose: 0, 12000 PPM IN DIET FOR 105 WK, CONTROL GROUP DIET RESTRICTED TO LIMIT WEIGHTS TO 85% OF AD LIBITUM-FED GROUPS (STUDY D",inactive; negative
same,carcinogen call,"Species: RAT, Strain/Sex: F344/MALE, Route: ORAL, Dose: 0, 12000 PPM IN DIET FOR 105 WK, CONTROL GROUP WAS WEIGHT-MATCHED TO DOSED GROUP (STUDY DURATION: 2 YR), Tumor Site: Type of Lesion: PANCREAS(ACINUS): ADENOMA",active; positive
same,carcinogen call,"Species: RAT, Strain/Sex: F344/MALE, Route: ORAL, Dose: 0, 12000 PPM IN DIET FOR 128 WK, CONTROL GROUP DIET RESTRICTED TO LIMIT WEIGHTS TO 85% OF AD LIBITUM-FED GROUP (STUDY DU",inactive; negative
CCCCOC(=O)[C@@H](C)Oc1ccc(Oc2ccc(C(F)(F)F)cn2)cc1,carcinogen call,"Species: Hamster, Strain/Sex: Syrian golden/Female (51/Group), Route: Oral, Dose: 0, 200, 750, 3000 ppm of 91.6% fluazifop-o-butyl (0; 10.6; 40; 158 mg/kg/day) in diet for 81-83 wks, study duration 83 w, Dose: 0, 200, 750, 3000 ppm of 91.6% fluazifop-o-butyl (0; 10.6; 40; 158 mg/kg/day) in diet for 81-83 wks, study duration 83 w",inactive; negative
same,carcinogen call,"Species: Hamster, Strain/Sex: Syrian golden/Male (51/Group), Route: Oral, Dose: 0, 200, 750, 3000 ppm of 91.6% fluazifop-o-butyl (0; 11.1; 42; 174 mg/kg/day) in diet for 81-83 wks, study duration 83 w, Dose: 0, 200, 750, 3000 ppm of 91.6% fluazifop-o-butyl (0; 11.1; 42; 174 mg/kg/day) in diet for 81-83 wks, study duration 83 w",inactive; negative
same,carcinogen call,"Species: Rat, Strain/Sex: Wistar/Female (60/Group), Route: Oral, Dose: 0, 2, 10, 80, 250 ppm of 94.8% fluazifop-o-butyl (0; 0.11; 0.53; 4.3; 13.4 mg/kg/day) in diet for 2 yrs, study duration, Dose: 0, 2, 10, 80, 250 ppm of 94.8% fluazifop-o-butyl (0; 0.11; 0.53; 4.3; 13.4 mg/kg/day) in diet for 2 yrs, study duration",inactive; negative
same,carcinogen call,"Species: Rat, Strain/Sex: Wistar/Male (60/Group), Route: Oral, Dose: 0, 2, 10, 80, 250 ppm of 94.8% fluazifop-o-butyl (0; 0.08; 0.41; 3.3; 10.2 mg/kg/day) in diet for 2 yrs, study duration, Dose: 0, 2, 10, 80, 250 ppm of 94.8% fluazifop-o-butyl (0; 0.08; 0.41; 3.3; 10.2 mg/kg/day) in diet for 2 yrs, study duration",inactive; negative
Cc1cc(C)c(N=Nc2c(O)c(S(=O)(=O)O)cc3cc(S(=O)(=O)O)ccc23)cc1C,carcinogen call,"Species: RAT, Route: ORAL, Tumor Site: Type of Lesion: LIVER",active; positive
N[C@@H](CS)C(=O)O,carcinogen call,"Species: RAT, Strain/Sex: F344/FEMALE, Route: ORAL, Dose: 0, 0.25, 0.5% IN DRINKING WATER FOR 108 WK (STUDY DURATION: 108 WK), Dose: 0, 0.25, 0.5% IN DRINKING WATER FOR 108 WK (STUDY DURATION: 108 WK)",inactive; negative
same,carcinogen call,"Species: RAT, Strain/Sex: F344/MALE, Route: ORAL, Dose: 0, 0.25, 0.5% IN DRINKING WATER FOR 108 WK (STUDY DURATION: 108 WK), Dose: 0, 0.25, 0.5% IN DRINKING WATER FOR 108 WK (STUDY DURATION: 108 WK)",inactive; negative
Cc1ccc2c(c1)[C@H](Nc1nc(N)nc(C(C)F)n1)[C@@H](C)C2 (stereo partly specified),carcinogen call,"Species: Mouse, Strain/Sex: C57BL/6J/Female (50/Group), Route: Oral, Dose: 0, 8.4, 42, 168 mg/kg/day of 93.14% indaziflam in diet for 18 mo, study duration 18 mo, Dose: 0, 8.4, 42, 168 mg/kg/day of 93.14% indaziflam in diet for 18 mo, study duration 18 mo",inactive; negative
same,carcinogen call,"Species: Mouse, Strain/Sex: C57BL/6J/Male (50/Group), Route: Oral, Dose: 0, 6.8, 34, 142 mg/kg/day of 93.14% indaziflam in diet for 18 mo, study duration 18 mo, Dose: 0, 6.8, 34, 142 mg/kg/day of 93.14% indaziflam in diet for 18 mo, study duration 18 mo",inactive; negative
same,carcinogen call,"Species: Rat, Strain/Sex: Wistar/Female (60/Group), Route: Oral, Dose: 0, 17, 167, 661 (wks 0-40), 452 (overall) mg/kg/day of 93.14% indaziflam in diet for 2 yr, study duration 2 yr, Dose: 0, 17, 167, 661 (wks 0-40), 452 (overall) mg/kg/day of 93.14% indaziflam in diet for 2 yr, study duration 2 yr",inactive; negative
same,carcinogen call,"Species: Rat, Strain/Sex: Wistar/Male (60/Group), Route: Oral, Dose: 0, 12, 118, 414 mg/kg/day of 93.14% indaziflam in diet for 2 yr, study duration 2 yr, Dose: 0, 12, 118, 414 mg/kg/day of 93.14% indaziflam in diet for 2 yr, study duration 2 yr",inactive; negative
CCc1ccc(C(c2ccc(CC)cc2)C(Cl)Cl)cc1,carcinogen call,"Species: MOUSE, Strain/Sex: B6C3F1/FEMALE, Route: ORAL, Dose: 0, 5000 IN DIET FOR FIRST 48 WK FOLLOWED BY 1000 PPM IN DIET FOR LAST 57 WK, 10000 PPM IN DIET FOR 48 WK FOLLOWED BY 300, Dose: 0, 5000 IN DIET FOR FIRST 48 WK FOLLOWED BY 1000 PPM IN DIET FOR LAST 57 WK, 10000 PPM IN DIET FOR 48 WK FOLLOWED BY 300, Tumor Site: Type of Lesion: LIVER: HEPATOCELLULAR CARCINOMA OR ADENOMA",equivocal
same,carcinogen call,"Species: MOUSE, Strain/Sex: B6C3F1/MALE, Route: ORAL, Dose: 0, 2,500, 5,000 PPM IN DIET FOR 105 WK (STUDY DURATION: 105 WK), Dose: 0, 2,500, 5,000 PPM IN DIET FOR 105 WK (STUDY DURATION: 105 WK)",inactive; negative
same,carcinogen call,"Species: RAT, Strain/Sex: F344/FEMALE, Route: ORAL, Dose: 0, 3,500, 7,000 PPM IN DIET FOR 105 WK (STUDY DURATION: 105 WK), Dose: 0, 3,500, 7,000 PPM IN DIET FOR 105 WK (STUDY DURATION: 105 WK)",inactive; negative
same,carcinogen call,"Species: RAT, Strain/Sex: F344/MALE, Route: ORAL, Dose: 0, 3,500, 7,000 PPM IN DIET FOR 105 WK (STUDY DURATION: 105 WK), Dose: 0, 3,500, 7,000 PPM IN DIET FOR 105 WK (STUDY DURATION: 105 WK)",inactive; negative
